Calls of active or inactive are those of the source. The rule behind the calls is not given here.
How the values were obtained:
Quadruplex DNA [1] = test: Binding affinity to G4 quadruplex DNA in human PANC1 cells assessed as BG4 foci formation at 800 nM after 6 hrs by immunofluorescence based confocal microscopic analysis; assay type: cell-based; conditions: PANC-1
Quadruplex DNA [2] = test: Binding affinity to G4 quadruplex DNA in human PANC1 cells assessed as BG4 foci formation at 400 to 800 nM after 24 hrs by immunofluorescence based confocal microscopic analysis; assay type: cell-based; conditions: PANC-1, dose nM 400-800, time 24.0 hrs
Quadruplex DNA [3] = test: Binding affinity to G4 quadruplex DNA in human PANC1 cells assessed as increase in number of BG4 foci at 100 nM after 24 hrs by immunofluorescence based confocal microscopic analysis; assay type: cell-based; conditions: PANC-1
BXPC-3 = test: Antiproliferative activity against human BxPC3 cells assessed as growth inhibition after 96 hrs by SRB assay; assay type: functional
[4] = Toxicity in mouse xenografted with human MIAPaCa2 cells assessed as drug tolerability at 1 mg/kg, iv administered once per week for 28 days; assay type: organism-based; conditions: in vivo, 672 h, time 28 day
[5] = Antitumor activity in KPC-induced PDAC mouse model expressing active KRASG12D and mutant p53R172H assessed as median survival time at 1 mg/kg, iv administered once per week up to 3 weeks (reference value: 12 days); assay type: functional
[6] = Clearance in mouse xenografted with human MIAPaCa2 cells at 0.96 mg/kg, iv administered as single dose; assay type: ADME, organism-based; conditions: in vivo
[7] = Volume of distribution at steady state in mouse xenografted with human MIAPaCa2 cells at 0.96 mg/kg, iv administered as single dose; assay type: ADME, organism-based; conditions: in vivo, read-out: Vdss
[8] = Apparent volume of distribution in mouse xenografted with human MIAPaCa2 cells at 0.96 mg/kg, iv administered as single dose; assay type: ADME, organism-based; conditions: in vivo, read-out: Vz
[9] = AUC in mouse xenografted with human MIAPaCa2 cells at 0.96 mg/kg, iv administered as single dose; assay type: ADME, organism-based; set-up: dose 0.96 mg/kg; conditions: in vivo
MIA PaCa-2 [10] = test: Antitumor activity against human MIAPaCa2 cells xenografted in mouse assessed as mean tumor volume at 1 mg/kg, iv administered once per week for 28 days and measured at day 28 by Caliper method (reference value: 0.45 +/- 0.18 cm3); assay type: functional; conditions: time 28 day
MIA PaCa-2 [11] = test: Antitumor activity against human MIAPaCa2 cells xenografted in mouse assessed as mean tumor volume at 1 mg/kg, iv administered twice per week for 28 days and measured at day 28 by Caliper method (reference value: 0.45 +/- 0.18 cm3); assay type: functional; conditions: time 28 day
MIA PaCa-2 [12] = test: Antitumor activity against human MIAPaCa2 cells xenografted in mouse assessed as change in tumor volume at 1 mg/kg, iv administered twice per week for 28 days and measured at day 28 by Caliper method relative to control; assay type: functional; conditions: time 28 day
[13] = Downregulation of WNT5B mRNA expression in human MIAPaCa2 cells at 40 nM after 6 hrs by RNA sequencing analysis relative to control; assay type: functional, MIA PaCa-2
[14] = Downregulation of AXIN1 mRNA expression in human MIAPaCa2 cells at 40 nM after 6 hrs by RNA sequencing analysis relative to control; assay type: functional, MIA PaCa-2
[15] = Downregulation of GLI1 mRNA expression in human MIAPaCa2 cells at 40 nM after 6 hrs by RNA sequencing analysis relative to control; assay type: functional, MIA PaCa-2
[16] = Downregulation of DVL1 mRNA expression in human MIAPaCa2 cells at 40 nM after 24 hrs by RNA sequencing analysis relative to control; assay type: functional, MIA PaCa-2
[17] = Downregulation of GLI1 mRNA expression in human MIAPaCa2 cells at 40 nM after 24 hrs by RNA sequencing analysis relative to control; assay type: functional, MIA PaCa-2
[18] = Downregulation of MAPK11 mRNA expression in human MIAPaCa2 cells at 40 nM after 24 hrs by RNA sequencing analysis relative to control; assay type: functional, MIA PaCa-2
[19] = Toxicity in mouse xenografted with human MIAPaCa2 cells assessed as effect on neuronal clinical signs at 1 mg/kg, iv administered once per week for 28 days; assay type: organism-based; conditions: in vivo, 672 h, time 28 day
MIA PaCa-2 [20] = test: Downregulation of hippo signaling pathway related gene expression in human MIAPaCa2 cells at 40 nM after 6 hrs by RNA sequencing analysis; assay type: functional, cell-based
MIA PaCa-2 [21] = test: Downregulation of NF-kappaB signalling pathway related gene expression in human MIAPaCa2 cells at 40 nM after 6 hrs by RNA sequencing analysis; assay type: functional, cell-based
MIA PaCa-2 [22] = test: Downregulation of Wnt signaling pathway related gene expression in human MIAPaCa2 cells at 40 nM after 6 hrs by RNA sequencing analysis; assay type: functional, cell-based
MIA PaCa-2 [23] = test: Downregulation of cell cycle associated gene expression in human MIAPaCa2 cells at 40 nM after 24 hrs by RNA sequencing analysis; assay type: functional, cell-based
MIA PaCa-2 [24] = test: Downregulation of Wnt signaling pathway related gene expression in human MIAPaCa2 cells at 40 nM after 24 hrs by RNA sequencing analysis; assay type: functional, cell-based
Mus musculus [25] = test: Down regulation of MAPK11 expression in mouse xenografted with human MIAPaCa2 cells at 1 mg/kg, iv administered twice per week for 28 days and measured on day 28 by Western blot analysis; assay type: functional, organism-based; conditions: time 28.0 day
Mus musculus [26] = test: Up regulation of cleaved PARP protein expression in mouse xenografted with human MIAPaCa2 cells at 1 mg/kg, iv administered twice per week for 28 days measured on day 28 by Western blot analysis; assay type: functional, organism-based; conditions: time 28.0 day
[27] = Toxicity in mouse xenografted with human MIAPaCa2 cells assessed as drug tolerability at 1 mg/kg, iv administered twice per week for 28 days; assay type: organism-based; conditions: in vivo, 672 h, time 28 day
Mus musculus [28] = test: Up regulation of cleaved PARP protein expression in mouse xenografted with human MIAPaCa2 cells at 1 mg/kg, iv administered once per week for 28 days measured on day 28 by Western blot analysis; assay type: functional, organism-based; conditions: time 28.0 day

O=C1c2cc(-c3ccc(CN4CCCC4)cc3)c3c4c(cc(NCCN5CCCC5)c(c24)C(=O)N1CCCN1CCOCC1)C(=O)N(CCCN1CCOCC1)C3=O [QN-302]
Activity (Quadruplex DNA [1]): inactive | Activity (Quadruplex DNA [2]): inactive | Activity (Quadruplex DNA [3]): Active | GI50 (BXPC-3): 2.6 nM | Activity [4]: Non-Toxic | MST [5]: 24 days | clearance [6]: 2.2 mL/min/kg | Vd [7]: 1.2 L/kg | Vd [8]: 6.9 L/kg | AUC [9]: 5860 ng·h/mL | Activity (MIA PaCa-2 [10]): 0.08 cm3 | Activity (MIA PaCa-2 [11]): 0.06 cm3 | Activity (MIA PaCa-2 [12]): -86.6% | log2FC [13]: 2.25 | log2FC [14]: 1.59 | log2FC [15]: 0.66 | log2FC [16]: 0.77 | log2FC [17]: 1.84 | log2FC [18]: 1.72 | Activity [19]: Non-Toxic | inhibition (MIA PaCa-2 [20]): Active | inhibition (MIA PaCa-2 [21]): Active | inhibition (MIA PaCa-2 [22]): Active | inhibition (MIA PaCa-2 [23]): Active | inhibition (MIA PaCa-2 [24]): Active | inhibition (Mus musculus [25]): Active | Activity (Mus musculus [26]): Active | Activity [27]: Non-Toxic | Activity (Mus musculus [28]): Active
